The test system of this experiment is active lesions (interdigital dermatitis or hairy warts).

Structures are written as SMILES.

Turning to `O=S(=O)([O-])[O-].[Cu+2]` [copper sulfate], under “50 gallons water + 25 lbs copper sulfate per 400 cows, once per day, 4 days per week, 1,600 cow dairy”, the “lesions per week, average” value is 22 lesions per week. Besides, under “same regimen, 8 week record”, the “lesions per week, high” value turned out to be 36 and the “lesions per week, low” value was 13.

The values above are taken from patent US7841299B2, “Method and apparatus for applying hoof care, sanitizing, or treatment solutions to the feet or hooves of animals” (Jot Holdings, LLC, priority 2007, dated 2010).
